Measurements published in patent US20260200928A1, “THERAPEUTIC COMPOUNDS” (Sanofi, priority 2022, published 2026).

Biological target: T1, human IL-17A (Homo sapiens, UniProt Q16552)
T1 construct: purchased R&D Systems 7955-IL/CF
T1 sequence (Q16552 24-155): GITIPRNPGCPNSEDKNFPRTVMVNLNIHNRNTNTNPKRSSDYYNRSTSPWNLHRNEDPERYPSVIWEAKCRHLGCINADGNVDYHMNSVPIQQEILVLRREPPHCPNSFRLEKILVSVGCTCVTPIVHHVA
Test: IL-17A AlphaLISA competition assay (block of IL-17A binding to its receptor IL-17RA)
Settings: mean IC50 (n≥2), block of IL-17A binding to IL-17RA
Method in brief: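 Human recombinant IL-17A (7.5 nM stock) pre-incubated 30 min at RT with compound, then IL-17RA/Fc (5 nM stock) added for 90 min; AlphaLISA read with anti-Fc acceptor beads, biotinylated anti-IL-17A antibody (5 nM) and streptavidin donor beads (3 h, dark). IC50 from 4-parameter logistic fit, normalised to DMSO and 4 μM reference inhibitor; n≥2.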

Row | IC50 [nM] | SMILES
1 | 117 | CCc1cnoc1C(=O)N[C@H](C(=O)Nc1cc(C(CC(F)(F)F)NC(=O)CCC(F)(F)F)ccn1)C1CCC(F)(F)CC1 (stereo partly drawn) [Example 157, N-((1S)-1-(4,4-difluorocyclohexyl)-2-oxo-2-((4-(3,3,3-trifluoro-1-(4,4,4-trifluorobutanamido)propyl)pyridin-2-yl)amino)ethyl)-4-ethylisoxazole-5-carboxamide]
2 | 828 | COCC(NC(=O)CCC(F)(F)F)c1ccnc(NC(=O)[C@@H](NC(=O)c2ccnn2CC2CC2)C2CCC(F)(F)CC2)c1 (single isomer, unassigned) [Example 147]
3 | 350 | CCc1nonc1C(=O)NC(C(=O)Nc1cc(C(CC)NC(=O)CCC(F)(F)F)ccn1)C1CCC(F)(F)CC1 (stereo in doubt) [Example 207, N-((1S)-1-(4,4-difluorocyclohexyl)-2-oxo-2-((4-(1-(4,4,4-trifluorobutan-amido)propyl)pyridin-2-yl)amino)ethyl)-4-ethyl-1,2,5-oxadiazole-3-carboxamide]
4 | 10300 | CC(C)(C)OC(=O)N[C@H](C(=O)Nc1cc(COC(=O)NCC(F)(F)F)ccn1)C1CCC(F)(F)CC1 [Example 45, Tert-butyl (S)-(1-(4,4-difluorocyclohexyl)-2-oxo-2-((4-((((2,2,2-trifluoroethyl)carbamoyl)oxy)methyl)pyridin-2-yl)amino)ethyl)carbamate]
5 | 19 | CCc1nonc1C(=O)N[C@H](C(=O)Nc1cc([C@@H](COC)N2CC(F)(F)CNC2=O)ccn1)C1CCC(F)(F)CC1 [Example 182, N-((S)-2-((4-((S)-1-(5,5-difluoro-2-oxotetrahydropyrimidin-1(2H)-yl)-2-methoxyethyl)pyridin-2-yl)amino)-1-(4,4-difluorocyclohexyl)-2-oxoethyl)-4-ethyl-1,2,5-oxadiazole-3-carboxamide]
6 | 70 | CCn1nccc1C(=O)N[C@H](C(=O)Nc1cc([C@@H](COC)N2C[C@@H](C(F)(F)F)NC2=O)ccn1)C1CCC(F)(F)CC1 [Example 201, N-((S)-1-(4,4-difluorocyclohexyl)-2-((4-((S)-2-methoxy-1-((S)-2-oxo-4-(trifluoromethyl)imidazolidin-1-yl)ethyl)pyridin-2-yl)amino)-2-oxoethyl)-1-ethyl-1H-pyrazole-5-carboxamide]
7 | 6790 | O=C(NCc1ccccc1)N[C@H](C(=O)Nc1cc(CN2C[C@@H](C(F)(F)F)NC2=O)ccn1)C1CCC(F)(F)CC1 [Example 99, (S)-2-(3-Benzylureido)-2-(4,4-difluorocyclohexyl)-N-(4-(((S)-2-oxo-4-(trifluoromethyl)imidazolidin-1-yl)methyl)pyridin-2-yl)acetamide]
8 | 98 | COC[C@H](c1ccnc(NC(=O)[C@@H](NC(=O)c2ccnn2C(C)C)[C@H]2CCCC(F)(F)C2)c1)N1C[C@@H](C(F)(F)F)NC1=O (single isomer, unassigned) [Example 309]
9 | 79 | Cc1nonc1C(=O)N[C@H](C(=O)Nc1cc(C(C)N2C[C@@H](C(F)(F)F)NC2=O)ccn1)C1CCC(F)(F)CC1 (single isomer, unassigned) [Example 169, N-((1S)-1-(4,4-Difluorocyclohexyl)-2-oxo-2-((4-(R or S)-(1-((S)-2-oxo-4-(trifluoromethyl)imidazolidin-1-yl)ethyl)pyridin-2-yl)amino)ethyl)-4-methyl-1,2,5-oxadiazole-3-carboxamide]
10 | 604 | CC(C)n1nccc1C(=O)N[C@H](C(=O)Nc1cc(O[C@H]2C[C@@H](C(F)(F)F)NC2=O)ccn1)[C@H]1CC[C@H](C)CC1 [Example 320, 1-isopropyl-N—((S)-1-((1r,4S)-4-methylcyclohexyl)-2-oxo-2-((4-(((3S,5S)-2-oxo-5-(trifluoromethyl)pyrrolidin-3-yl)oxy)pyridin-2-yl)amino)ethyl)-1H-pyrazole-5-carboxamide]
11 | 138 | CC(C)c1nocc1C(=O)N[C@H](C(=O)Nc1cc(CN2C[C@@H](C(F)(F)F)NC2=O)ccn1)C1CCC(F)(F)CC1 [Example 21, N-((S)-1-(4,4-difluorocyclohexyl)-2-oxo-2-((4-(((S)-2-oxo-4-(trifluoro-methyl)imidazolidin-1-yl)methyl)pyridin-2-yl)amino)ethyl)-3-isopropyl-isoxazole-4-carboxamide]
12 | 126 | C[C@H]1CC[C@H]([C@H](NC(=O)c2ccnn2CCC(O)C(F)(F)F)C(=O)Nc2cc(CN3C[C@@H](C(F)(F)F)NC3=O)ccn2)CC1 (single isomer, unassigned) [Example 69]
13 | 3230 | COCC(NC(=O)CCC(F)(F)F)c1ccnc(NC(=O)[C@@H](NC(=O)c2ccnn2C)C2CCC(F)(F)CC2)c1 (single isomer, unassigned) [Example 143]

The remaining lines, values behind:

Row | SMILES | IC50 [nM]
14 | CCc1nocc1C(=O)N[C@H](C(=O)Nc1cc([C@@H](COC)N2C[C@@H](C(F)(F)F)NC2=O)ccn1)C1CCC(C(F)(F)F)CC1 (stereo partly drawn) [Example 300, 3-ethyl-N-((1S)-2-((4-((S)-2-methoxy-1-((S)-2-oxo-4-(trifluoromethyl)-imidazolidin-1-yl)ethyl)pyridin-2-yl)amino)-2-oxo-1-(4-(trifluoromethyl)-cyclohexyl)ethyl)isoxazole-4-carboxamide] | 39
15 | COC[C@H](c1ccnc(NC(=O)C(NC(=O)c2nonc2C2CC2)C2CCC(F)CC2)c1)N1C[C@@H](C(F)(F)F)NC1=O (single isomer, unassigned) [Example 278] | 1890
16 | CCn1nccc1C(=O)N[C@H](C(=O)Nc1cc(C[C@@H]2C[C@@H](C(F)(F)F)NC2=O)ccn1)[C@H]1CC[C@H](C)CC1 [Example 153, 1-ethyl-N—((S)-1-((1r,4S)-4-methylcyclohexyl)-2-oxo-2-((4-(((3R,5S)-2-oxo-5-(trifluoromethyl)pyrrolidin-3-yl)methyl)pyridin-2-yl)amino)ethyl)-1H-pyrazole-5-carboxamide] | 171
17 | C[C@@H]1CN(Cc2ccnc(NC(=O)[C@@H](NC(=O)OC(C)(C)C)[C@H]3CC[C@H](C)CC3)c2)C(=O)N1 [Example 30] | 479
18 | COCC(c1ccnc(NC(=O)[C@@H](NC(=O)c2ocnc2C)[C@H]2CC[C@H](C)CC2)c1)N1C[C@@H](C(F)(F)F)NC1=O (single isomer, unassigned) [Example 122] | 82
19 | CCc1nonc1C(=O)N[C@H](C(=O)Nc1cc(CN2C[C@@H](C(F)(F)F)NC2=O)ccn1)[C@H]1CC[C@H](F)CC1 (single isomer, unassigned) [Example 290] | 160
20 | COCC(c1ccnc(NC(=O)[C@@H](NC(=O)c2nocc2C)[C@H]2CC[C@H](C)CC2)c1)N1C[C@@H](C(F)(F)F)NC1=O (single isomer, unassigned) [Example 120] | 18
21 | COCC(c1ccnc(NC(=O)[C@@H](NC(=O)c2ncsc2C)[C@H]2CC[C@H](C)CC2)c1)N1C[C@@H](C(F)(F)F)NC1=O (single isomer, unassigned) [Example 91] | 119
22 | Cc1n[nH]c(C)c1Cc1ccnc(NC(=O)[C@@H](NC(=O)OC(C)(C)C)[C@H]2CC[C@H](C)CC2)c1 [Example 79, Tert-butyl ((S)-2-((4-((3,5-dimethyl-1H-pyrazol-4-yl)methyl)pyridin-2-yl)amino)-1-((1r,4S)-4-methylcyclohexyl)-2-oxoethyl)carbamate] | 5270
